Values joined by “and” are separate entries in the source; they are usually repeats but may differ in a detail not shown here. Identical values can stand only once.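 Assay format: 96-well plates, 48-hour exposure. GI50 marks 50% less growth.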 Active and inactive are the calls of the source. Rule as the data show it: active = GI50 up to about 1.1 µM and inactive = higher.
Tests used:
Test in all cases: growth of human tumour cells (NCI), 48 h
A498 = system: A498
A549 = system: A549
ACHN = system: ACHN
BT-549 = system: BT-549
CAKI-1 = system: CAKI-1
CCRF-CEM = system: CCRF-CEM
COLO 205 = system: COLO 205
DU-145 = system: DU-145
EKVX = system: EKVX
HCC 2998 = system: HCC 2998
HCT-116 = system: HCT-116
HCT-15 = system: HCT-15
HL-60 = system: HL-60
HOP-92 = system: HOP-92
HT-29 = system: HT-29
Hs-578T = system: Hs-578T
IGROV-1 = system: IGROV-1
K562 = system: K562
KM12 = system: KM12
LOX IMVI = system: LOX IMVI
M14 = system: M14
MCF7 = system: MCF7
MDA-MB-231 = system: MDA-MB-231
MDA-MB-435 = system: MDA-MB-435
MOLT-4 = system: MOLT-4
Malme-3M = system: Malme-3M
NCI-H23 = system: NCI-H23
NCI-H460 = system: NCI-H460
NCI-H522 = system: NCI-H522
NCI/ADR-RES = system: NCI/ADR-RES
OVCAR-3 = system: OVCAR-3
OVCAR-4 = system: OVCAR-4
OVCAR-5 = system: OVCAR-5
OVCAR-8 = system: OVCAR-8
PC-3 = system: PC-3
RPMI-8226 = system: RPMI-8226
RXF 393 = system: RXF 393
SF-268 = system: SF-268
SF-295 = system: SF-295
SF-539 = system: SF-539
SK-MEL-28 = system: SK-MEL-28
SK-MEL-2 = system: SK-MEL-2
SK-MEL-5 = system: SK-MEL-5
SNB-19 = system: SNB-19
SW-620 = system: SW-620
T47D = system: T47D
TK-10 = system: TK-10
U-251 = system: U-251
UACC-257 = system: UACC-257
UACC-62 = system: UACC-62
UO-31 = system: UO-31
786-0 = system: 786-0
NCI-H226 = system: NCI-H226
SK-OV-3 = system: SK-OV-3
SNB-75 = system: SNB-75
HOP-62 = system: HOP-62
SR = system: SR

For `Cc1ccc(S(=O)(=O)OCCN(CCOS(=O)(=O)c2ccc(C)cc2)c2ccc(C=O)cc2)cc1`, the GI50 (A498) was 24.9 µM (inactive), the GI50 (A549) was 32.5 µM (inactive) and the GI50 (ACHN) was 33.6 µM (inactive). The GI50 (BT-549) was 28.8 µM (inactive), the GI50 (CAKI-1) was 21.1 µM (inactive) and the GI50 (CCRF-CEM) was 34.8 µM (inactive). For the same molecule, the GI50 (COLO 205) was 28.1 µM (inactive), the GI50 (DU-145) was 27.1 µM (inactive) and the GI50 (EKVX) was 30.8 µM (inactive). The GI50 (HCC 2998) was 28.7 µM (inactive), the GI50 (HCT-116) was 30.1 µM (inactive) and the GI50 (HCT-15) was 30.1 µM. For the same molecule, the GI50 (HL-60) was 42.3 µM (inactive), the GI50 (HOP-92) was 26.1 µM (inactive) and the GI50 (HT-29) was 32.1 µM (inactive). The GI50 (Hs-578T) was 36.2 µM (inactive), the GI50 (IGROV-1) was 36.1 µM (inactive) and the GI50 (K562) was 38.4 µM (inactive). For the same molecule, the GI50 (KM12) was 22.8 µM (inactive), the GI50 (LOX IMVI) was 38.7 µM (inactive) and the GI50 (M14) was 32.4 µM (inactive). The GI50 (MCF7) was 30.7 µM (inactive), the GI50 (MDA-MB-231) was 23.8 µM (inactive) and the GI50 (MDA-MB-435) was 21.4 µM (inactive). For the same molecule, the GI50 (MOLT-4) was 32.4 µM (inactive), the GI50 (Malme-3M) was 25.4 µM (inactive) and the GI50 (NCI-H23) was 36.2 µM (inactive). For the same molecule, the GI50 (NCI-H460) was 21.9 µM (inactive), the GI50 (NCI-H522) was 10.8 µM (inactive) and the GI50 (NCI/ADR-RES) was 36.2 µM (inactive). The GI50 (OVCAR-3) was 23.7 µM (inactive), the GI50 (OVCAR-4) was 21.2 µM (inactive) and the GI50 (OVCAR-5) was 25.3 µM (inactive). The GI50 (OVCAR-8) was 41.8 µM (inactive), the GI50 (PC-3) was 32.7 µM (inactive) and the GI50 (RPMI-8226) was 38.4 µM (inactive). For the same molecule, the GI50 (RXF 393) was 15.7 µM (inactive), the GI50 (SF-268) was 46.6 µM (inactive) and the GI50 (SF-295) was 44.3 µM (inactive). The GI50 (SF-539) was 24.8 µM (inactive), the GI50 (SK-MEL-28) was 31.4 µM (inactive) and the GI50 (SK-MEL-2) was 16.5 µM (inactive). The GI50 (SK-MEL-5) was 32.9 µM (inactive), the GI50 (SNB-19) was 60.8 µM (inactive) and the GI50 (SW-620) was 29.6 µM (inactive). The GI50 (T47D) was 40.7 µM (inactive), the GI50 (TK-10) was 36.3 µM (inactive) and the GI50 (U-251) was 24.3 µM (inactive). The GI50 (UACC-257) was 24.8 µM (inactive), the GI50 (UACC-62) was 20 µM (inactive) and the GI50 (UO-31) was 19.5 µM (inactive).

`CCCC[C@@H]1CCN2C[C@@H](O)[C@@H](O)[C@H]2[C@@H]1O` was tested, and the GI50 (786-0) was > 100 µM (inactive), the GI50 (A498) was > 100 µM (inactive) and the GI50 (A549) was > 100 µM (inactive). The GI50 (ACHN) was > 100 µM (inactive), the GI50 (BT-549) was > 100 µM (inactive) and the GI50 (CAKI-1) was > 100 µM (inactive). For the same molecule, the GI50 (CCRF-CEM) was > 100 µM (inactive), the GI50 (COLO 205) was > 100 µM (inactive) and the GI50 (EKVX) was > 100 µM (inactive). For the same molecule, the GI50 (HCC 2998) was > 100 µM (inactive), the GI50 (HCT-116) was > 100 µM (inactive) and the GI50 (HCT-15) was > 100 µM. For the same molecule, the GI50 (HL-60) was > 100 µM (inactive), the GI50 (HOP-92) was > 100 µM (inactive) and the GI50 (HT-29) was > 100 µM (inactive). The GI50 (Hs-578T) was > 100 µM (inactive), the GI50 (IGROV-1) was > 100 µM (inactive) and the GI50 (K562) was > 100 µM (inactive). The GI50 (KM12) was > 100 µM (inactive), the GI50 (LOX IMVI) was > 100 µM (inactive) and the GI50 (M14) was > 100 µM (inactive). The GI50 (MCF7) was > 100 µM (inactive), the GI50 (MDA-MB-231) was > 100 µM (inactive) and the GI50 (MDA-MB-435) was > 100 µM (inactive). For the same molecule, the GI50 (MOLT-4) was > 100 µM (inactive), the GI50 (Malme-3M) was > 100 µM (inactive) and the GI50 (NCI-H226) was > 100 µM (inactive). The GI50 (NCI-H23) was > 100 µM (inactive), the GI50 (NCI-H460) was > 100 µM (inactive) and the GI50 (NCI-H522) was > 100 µM (inactive). The GI50 (NCI/ADR-RES) was > 100 µM (inactive), the GI50 (OVCAR-3) was > 100 µM (inactive) and the GI50 (OVCAR-4) was > 100 µM (inactive). The GI50 (OVCAR-5) was > 100 µM (inactive), the GI50 (OVCAR-8) was > 100 µM (inactive) and the GI50 (PC-3) was > 100 µM (inactive). The GI50 (RPMI-8226) was > 100 µM (inactive), the GI50 (SF-268) was > 100 µM (inactive) and the GI50 (SF-295) was > 100 µM (inactive). The GI50 (SF-539) was > 100 µM (inactive), the GI50 (SK-MEL-28) was > 100 µM (inactive) and the GI50 (SK-MEL-2) was > 100 µM (inactive). For the same molecule, the GI50 (SK-MEL-5) was > 100 µM (inactive), the GI50 (SK-OV-3) was > 100 µM (inactive) and the GI50 (SNB-19) was > 100 µM (inactive). The GI50 (SNB-75) was > 100 µM (inactive), the GI50 (SW-620) was > 100 µM (inactive) and the GI50 (TK-10) was > 100 µM (inactive). The GI50 (U-251) was > 100 µM (inactive), the GI50 (UACC-257) was > 100 µM (inactive) and the GI50 (UACC-62) was > 100 µM (inactive). For the same molecule, the GI50 (UO-31) was > 100 µM (inactive).

With `c1ccc(P(CCP(CCP(c2ccccc2)c2ccccc2)c2ccccc2)CCP(c2ccccc2)c2ccccc2)cc1` (configuration not stated) the GI50 (786-0) was 1.82 µM (inactive), the GI50 (A498) was > 10 µM (inactive) and > 8.65 µM (inactive) and the GI50 (BT-549) was > 10 µM (inactive). The GI50 (CCRF-CEM) was 1.23 µM (inactive), the GI50 (DU-145) was > 9.16 µM (inactive) and the GI50 (HCC 2998) was 2.06 µM (inactive). For the same molecule, the GI50 (HCT-15) was 9.77 µM, the GI50 (HL-60) was 0.63 µM (active) and the GI50 (HOP-62) was > 10 µM (inactive). The GI50 (Hs-578T) was 3.85 µM (inactive), the GI50 (K562) was 1.28 µM (inactive) and the GI50 (LOX IMVI) was 1.51 µM (inactive). For the same molecule, the GI50 (MCF7) was 1.67 µM (inactive), the GI50 (MOLT-4) was 1.41 µM (inactive) and the GI50 (Malme-3M) was > 10 µM (inactive). The GI50 (NCI-H226) was > 5.22 µM (inactive), the GI50 (NCI-H23) was > 5.38 µM (inactive) and the GI50 (NCI-H460) was 1.72 µM (inactive). For the same molecule, the GI50 (NCI-H522) was 2.69 µM (inactive), the GI50 (NCI/ADR-RES) was > 10 µM (inactive) and > 5.58 µM (inactive) and the GI50 (OVCAR-4) was 7.33 µM (inactive). The GI50 (OVCAR-5) was > 5.45 µM (inactive), the GI50 (RPMI-8226) was 1.68 µM (inactive) and the GI50 (RXF 393) was > 5.6 µM (inactive). The GI50 (SF-539) was > 6.25 µM (inactive), the GI50 (SK-MEL-2) was 9.44 µM (inactive) and the GI50 (SK-OV-3) was > 10 µM (inactive). For the same molecule, the GI50 (SR) was 1.1 µM (active), the GI50 (SW-620) was 5.05 µM (inactive) and the GI50 (T47D) was 2.12 µM (inactive). For the same molecule, the GI50 (TK-10) was > 10 µM (inactive), the GI50 (UACC-257) was > 10 µM (inactive) and the GI50 (UACC-62) was 6.55 µM (inactive). The GI50 (UO-31) was > 10 µM (inactive) and > 6.82 µM (inactive).
